Here are results for 18 compounds from publication PMC11170759, “Advancing Parkinson’s Disease Diagnostics: The Potential of Arylpyrazolethiazole Derivatives for Imaging α-Synuclein Aggregates” (ACS Omega, 2024).

One may read the Ki as a measure of affinity in units of concentration, obtained from inhibition or displacement. By logD is commonly meant the decadic logarithm of the distribution of all forms, ionised or not, between an organic phase and buffer at a given pH.

Where “and” joins values, the source holds several entries; their conditions need not be identical. Equal values may be shown once. A value given as a limit tells only on which side of the number the result lay.

The target in data set [1] is human recombinant α-syn fibrils (Homo sapiens, UniProt P37840). The data set can be described thus: In vitro competition binding assay against [3H]MODAG-001 on α-syn fibrils. To be noted: for Ki: competition against 1 nM [3H]MODAG-001, α-syn fibrils 50 nM, mean Ki ± SEM; for selectivity for α-syn over Aβ: ratio of Ki Aβ to Ki α-syn fibrils; for binding affinity to α-syn fibrils (in words): competition against [3H]MODAG-001. Here is the method: (§1) The APT library underwent in vitro testing to evaluate its binding affinity to human recombinant α-syn fibrils. Promising compounds were further tested on Aβ fibrils. […] Since the DPP and APT class of compounds share similarities, the APT library was tested in a competition binding assay with [^3H]MODAG-001 to determine its relative binding affinity and inhibition constant (Ki). The binding assay measured the displacement of the radioligand by increasing concentrations of competitor compounds, using fixed concentrations of fibrils and radioligand.
(§2) The dissociation constant (Kd) values of [^3H]MODAG–001 for human recombinant α-syn and synthetic human Aβ1–42 fibrils have previously been determined using saturation binding assays.[30] To determine the relative binding affinity (inhibition constant, Ki) of test compounds, competition binding assays of [^3H]MODAG-001 were performed. […] Human recombinant α-syn (50 nM) and synthetic human Aβ1–42 fibrils (1 μM) diluted in PBS (Gibco DPBS, no calcium, no magnesium, Thermo Fisher Scientific, Waltham, MA, USA) were incubated with increasing concentrations of test compounds (5 pM to 10 μM) against 1 nM [^3H]MODAG–001 in 30 mM Tris–HCl, 0.1% bovine serum albumin, and 0.05% Tween20 in 96-well micro test low-binding plates (ratiolab GmbH, Dreieich, Germany) to a total volume of 200 μL/well. Plates were incubated on a shaker (MaxQ 6000, Thermo Fisher Scientific Inc., Marietta, OH, USA) at 50 rpm for 2 h at 37 °C, covered by removable sealing tapes (PerkinElmer, Waltham, MA, USA). Vacuum filtration and read-out were performed as previously reported (Kuebler, Buss et al. 2021). Briefly, a glass fiber Filtermat B (PerkinElmer, Waltham, MA, USA) incubated with 0.5% polyethylenimine (PEI; Sigma-Aldrich Chemie GmbH, Taufkirchen, Germany) for 30 min at 4 °C before filter harvesting was used with a FilterMate Harvester (PerkinElmer, Waltham, MA, USA). Melt-on scintillator sheets (MeltiLex B/HS, PerkinElmer, Waltham, MA, USA) were molten onto dried filters. Accumulation of tritium was counted in a liquid scintillation Wallac MicroBeta TriLux counter (PerkinElmer, Waltham, MA, USA) at 2 min per well. Radioactivity in counts per minute for each concentration of the test compound was normalized to the radioactivity obtained in the absence of the test compound for conversion to percentage binding of the reference tracer. The resulting values were plotted against increasing concentrations of the test compounds. Data points were fitted using nonlinear regression analysis in GraphPad Prism (GraphPad Software, Inc., Version 8.4.0, La Jolla, CA, USA). The binding curve for [^3H]MODAG-001 saturation assay on α-syn fibrils is reported in the Supporting Information (Figure S6).

The target of data set [2] is T1, synthetic human Aβ1–42 fibrils (Homo sapiens, UniProt P05067).
T1 construct: Synthetic lyophilized human Aβ1–42 peptide; purchased EMC Microcollections GmbH (Tuebingen, Germany); host or cells: chemical synthesis
T1 sequence (P05067 672-713): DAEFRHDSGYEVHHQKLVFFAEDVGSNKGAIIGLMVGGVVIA
The data set can be described thus: In vitro competition binding assay against [3H]MODAG-001 on Aβ1–42 fibrils. The conditions noted are these: for Ki: competition against 1 nM [3H]MODAG-001, Aβ1–42 fibrils 1 μM, mean Ki ± SEM. Here is the method:
as §1
α-Syn fibrils were generated as the previously reported method.[30] The generation of Aβ1–42 fibril was adapted from Bagchi et al. and previously described by Kuebler et al.[16],[31] Synthetic lyophilized human Aβ1–42 peptide with >90% purity purchased from EMC Microcollections GmbH (Tuebingen, Germany) was dissolved in dimethyl sulfoxide (DMSO; 5 mg in 221.5 μL). Deionized water (4.1 mL) and 1 M Tris–HCl (111 μL, pH 7.6) were added to obtain a final monomeric concentration of 250 μM. Aggregation was induced by incubating the monomers in Eppendorf Thermomixer at 37 °C with shaking at 800 rpm for 72 h. Generated fibrils were sonicated for 3 min in a water bath (Elmasonic S 60H, Elma Schmidbauer GmbH, Singen, Germany). The final products were aliquoted, frozen on dry ice, and stored at −80 °C until use. Aβ1–42 fibril quality was evaluated via thioflavin (ThT) fluorescence and radioligand saturation assay with [^3H]PiB and [^3H]MODAG-001.
as §2

Another data set concerns the target α-synuclein aggregates. Details: method as in PMID 34577548. The conditions noted are these: literature ligands of Figure 1; read-out: Ki α-syn; cited from earlier work.
Another data set concerns the target Aβ1-42. More on the design: method as in PMID 34577548. To be noted: literature ligands of Figure 1; cited from earlier work.
Data set [3] is described as follows: LogD determination (octanol/PBS). The data set is classed as physicochemical. The conditions noted are these: n = 3. On the procedure:
The logD was calculated experimentally by adding [^11C]APT-13 (1.5 MBq) to a 1.5 mL Eppendorf vial containing 500 μL of octanol (OCT) and 500 μL of PBS. The vial was vigorously vortexed and then, to achieve effective phase separation, centrifuged. Aliquots of 350 μL were collected from both OCT and PBS phases. The OCT sample was further washed with 350 μL of PBS; the phases mixture was shaken and centrifuged, and 200 μL of both phases were taken into new reaction tubes. The amount of radioactivity in each sample was quantified using a γ-counter. The log OCT/PBS values were calculated from the mean of n = 3 determinations (Table S3).
Table S3. Results from LogD determination assay.
C-11 CPM Description Mean value Mean value * dil

The next data set in a line: Serum stability assay. It counts as in vitro ADME. To be noted: 37 °C, within 90 min. On the procedure:
Human serum was obtained from human male AB plasma, USA origin, sterile-filtered (Sigma-Aldrich, St. Louis, MO, USA).
The tracer formulation was mixed with an equal volume of human serum (250 μL) and incubated into a thermo-shaker at 37 °C, 300 rpm. At different time points (0, 15, 30, 60, and 90 min), 70 μL samples were drawn and mixed with ice-cold acetonitrile (1:1 dilution) and quickly vortexed. The dilute sample was incubated for 2 min on ice and centrifuged (MiniSpin centrifuge, Eppendorf) for 2 min at 13,400 rpm. An aliquot of the supernatant (120 μL) was analyzed by analytical radio-HPLC on a Luna C18(2), 5 μm, 250 × 4.6 mm column with 35% ACN in 0.1% aqueous TFA as mobile phase and at a flow rate of 1.5 mL/min in 10 min. The radiolabeled product was eluted at a retention time of 5.9 ± 0.2 min (Figure S5).

Data set [4] in a line: In vivo PET/MR imaging in healthy wild-type mice. More on the design: species or system mice (C57BL/6J). To be noted: iv. On the procedure:
To assess the pharmacokinetic profile of [^11C]APT-13 in vivo, wild-type mice (n = 3) were iv injected, and the organ distribution was assessed over 60 min with dynamic PET and anatomical MR imaging (Figure 7A). […] Tracer clearance was largest through the liver (SUV ≈ 5), and high uptake was also observed in the heart (SUV ≈ 6) and lungs (SUV ≈ 5). Uptake with fast clearance was also observed in the kidney, indicating renal excretion within the first few minutes (Figure 7C).
To evaluate the pharmacokinetics of [^11C]APT-13, PET and subsequent MRI scans were performed in healthy mice (female, 21 weeks old, C57BL/6J) to determine brain uptake and washout as well as organ uptake of the liver, lungs, heart, kidneys, and brain. Scans were performed in a small animal Inveon PET scanner (Siemens Healthcare, Erlangen, Germany) and a 7T small animal MRI scanner (Bruker BioSpin GmbH, Ettlingen, Germany). The mice (n = 3) were anesthetized with 1.5% isoflurane evaporated in 100% oxygen at a flow of 0.8 L/min, and a catheter was placed in the tail vein. The body temperature was kept at 37 °C by using a feedback temperature control unit for a heat pump that was connected to the PET bed. Five seconds after the start of the PET acquisition, 15.2 ± 0.5 MBq (410 ± 13 μCi) of [^11C]APT-13 was injected intravenously. PET data were acquired in a dynamic scan for 60 min plus an extra 13 min of transmission measurement with a ^57Co-source for attenuation correction. Subsequently, mice were placed in the same bed position in the MRI, and an anatomical scan was performed using a Turbo RARE T2 sequence. For analysis, the 60 min of acquired PET data were divided into 39-time frames (12 × 5, 6 × 10, 6 × 30, 5 × 60, and 10 × 300 s) and reconstructed using the OSEM3D reconstruction algorithm. The PET scans were coregistered to the whole-body MRI scan using PMOD software (version 4.203; PMOD Technologies, Zürich, Switzerland), and the volume of interest (VOI) of the different organs (liver, lungs, heart, kidney, and brain) were hand-drawn according to the anatomical localization. VOI were selected from the mouse brain atlas in PMOD, time activity curves were extracted, and SUV were calculated by normalizing to the injected activity and animal weight.

For `CNc1ccc(/C=C/C(=O)c2nc(Br)cs2)cc1` [APT-12, (E)-1-(4-Bromothiazol-2-yl)-3-(4-(methylamino)phenyl)prop-2-en-1-one], the Ki amounted to 198 ± 142 nM in data set [1] and 587 nM in data set [2].

In the case of `CNc1ccc(-c2cc(-c3nccs3)[nH]n2)cc1` [APT-7, N-Methyl-4-(5-(thiazol-2-yl)-1H-pyrazol-3-yl)aniline], the Ki in data set [1] is 45 nM and 44.5 nM; in data set [2], 381 ± 217 nM. In addition, the “selectivity for α-syn over Aβ” value in data set [1] was more than 20 fold.

As for `Cn1nc(-c2ccc3c(c2)OCO3)cc1-c1nc(Br)cs1` [APT-14, 2-(3-(Benzo[d][1,3]dioxol-5-yl)-1-methyl-1H-pyrazol-5-yl)-4-bromothiazole], the “binding affinity to α-syn fibrils (in words)” value (from here on “binding affinity”) in data set [1] is “loss of competition”.

For the compound `Fc1csc(-c2cc(-c3ccc4c(c3)OCO4)n[nH]2)n1` [APT-10, 2-(3-(Benzo[d][1,3]dioxol-5-yl)-1H-pyrazol-5-yl)-4-fluorothiazole], in data set [1], the Ki came out at 818.4 ± 1.8 nM.

With `Brc1cnc(-c2cc(-c3ccc4c(c3)OCO4)n[nH]2)s1` [APT-9, 2-(3-(Benzo[d][1,3]dioxol-5-yl)-1H-pyrazol-5-yl)-5-bromothiazole], the figures for the Ki in data set [1] and in data set [2] were 187 nM and 230 nM, respectively. Further, the “binding affinity” value in data set [1] is on record as “poor binding”.

Consider `COc1ccc(/C=C/c2cc(-c3nccs3)on2)cc1` [11b], for which the figures for the Ki at α-synuclein aggregates and on Aβ1-42 were 18.5 ± 9.2 nM and 91.5 ± 58.7 nM, respectively.

With `O=C(/C=C/c1ccc2c(c1)OCO2)c1nccs1` [APT-3, (E)-3-(Benzo[d][1,3]dioxol-5-yl)-1-(thiazol-2-yl)prop-2-en-1-one], in data set [1], the Ki was more than 894 nM.

For `Brc1csc(-c2cc(-c3ccc4c(c3)OCO4)n[nH]2)n1` [APT-4, 2-(3-(Benzo[d][1,3]dioxol-5-yl)-1H-pyrazol-5-yl)-4-bromothiazole], the Ki in data set [1] is 50 nM and 49.7 nM; in data set [2], 1030 ± 562 nM. The “selectivity for α-syn over Aβ” value in data set [1] is recorded as more than 8 fold.

As to `CNc1ccc(-c2cc(-c3nc(Br)cs3)[nH]n2)cc1` [APT-13, 4-(5-(4-Bromothiazol-2-yl)-1H-pyrazol-3-yl)-N-methylaniline], the results for the Ki in data set [1] and in data set [2] were 27.8 ± 9.7 nM and 92.6 ± 48.8 nM, respectively.

In data set [3], `[11CH3]Nc1ccc(-c2cc(-c3nc(Br)cs3)[nH]n2)cc1` [[^11C]APT-13] showed a logD of 3.16. Further, the “stability in human serum” value in “Serum stability assay” was “did not show evidence of degradation”. Also, in data set [4] (n = 3), the SUV heart result is “≈ 6”, the SUV liver result is “≈ 5” and the SUV lungs entry is reported as “≈ 5”. In addition, the “peak SUV in brain” value in data set [4] (n = 3, dynamic PET 60 min) was determined as 1.94 ± 0.29.

In the case of `FCCNc1ccc(-c2cc(-c3nccs3)[nH]n2)cc1` [APT-6, N-(2-Fluoroethyl)-4-(5-(thiazol-2-yl)-1H-pyrazol-3-yl)aniline], in data set [1], the inhibitory constant (Ki) was determined as 184 nM and the “binding affinity” value is given as “modest affinity”.

Take `Fc1ccc(-c2csc(-c3nc(-c4cnc5c(c4)OCO5)cs3)n2)cn1` [d8]: the Ki on α-synuclein aggregates is 0.1 nM; on Aβ1-42 it was 386 nM.

Consider `c1coc(-c2cc(-c3ccc4c(c3)OCO4)n[nH]2)n1` [APT-2, 2-(3-(Benzo[d][1,3]dioxol-5-yl)-1H-pyrazol-5-yl)oxazole], for which, in data set [1], the Ki stood at 134 nM.

`c1csc(-c2cc(-c3ccc4c(c3)OCO4)n[nH]2)n1` [APT-1, 2-(3-(Benzo[d][1,3]dioxol-5-yl)-1H-pyrazol-5-yl)thiazole]: in data set [1], the Ki stood at 145 ± 46 nM and the “binding affinity” value was “moderate affinity”. Moreover, in data set [2], the Ki was 561 nM. For the same compound, in data set [2] (competition against [3H]MODAG-001), the “binding to Aβ fibrils (in words)” value is “significantly lower binding”.

As to `CNc1ccc(/C=C/C(=O)c2nccs2)cc1` [APT-11, (E)-3-(4-(Methylamino)phenyl)-1-(thiazol-2-yl)prop-2-en-1-one], the Ki turned out to be 1010 ± 34 nM in data set [1] and 377 nM in data set [2].

Consider `Cn1nc(-c2ccc3c(c2)OCO3)cc1-c1nccs1` [APT-8, 2-(3-(Benzo[d][1,3]dioxol-5-yl)-1-methyl-1H-pyrazol-5-yl)thiazole], for which, in data set [1], the inhibitory constant (Ki) is more than 14200 nM.

On to `O=C(/C=C/C=C/C=C/c1ccc([N+](=O)[O-])cc1)c1ccc(OCC(O)CF)cc1` (stereo not drawn) [FHCL-2], for which the Ki at α-synuclein aggregates is 3.4 ± 0.1 nM. In addition, at Aβ1-42, the “Ki Aβ1-42” value is “no competition”.

As for `CN(C)c1ccc(-c2cc(-c3nccs3)[nH]n2)cc1` [APT-5, N,N-Dimethyl-4-(5-(thiazol-2-yl)-1H-pyrazol-3-yl)aniline], the Ki in data set [1] was 217 nM.
